We go through 32 compounds from ChEMBL document CHEMBL3399947, “Structure activity relationship of selective GABA uptake inhibitors” (Bioorg Med Chem, 2015).

Common to all, as to assay type: cell-based
Test [1] concerns the target T1, GABA transporter 3 (Mus musculus, UniProt P31649).
T1 sequence (P31649 whole entry): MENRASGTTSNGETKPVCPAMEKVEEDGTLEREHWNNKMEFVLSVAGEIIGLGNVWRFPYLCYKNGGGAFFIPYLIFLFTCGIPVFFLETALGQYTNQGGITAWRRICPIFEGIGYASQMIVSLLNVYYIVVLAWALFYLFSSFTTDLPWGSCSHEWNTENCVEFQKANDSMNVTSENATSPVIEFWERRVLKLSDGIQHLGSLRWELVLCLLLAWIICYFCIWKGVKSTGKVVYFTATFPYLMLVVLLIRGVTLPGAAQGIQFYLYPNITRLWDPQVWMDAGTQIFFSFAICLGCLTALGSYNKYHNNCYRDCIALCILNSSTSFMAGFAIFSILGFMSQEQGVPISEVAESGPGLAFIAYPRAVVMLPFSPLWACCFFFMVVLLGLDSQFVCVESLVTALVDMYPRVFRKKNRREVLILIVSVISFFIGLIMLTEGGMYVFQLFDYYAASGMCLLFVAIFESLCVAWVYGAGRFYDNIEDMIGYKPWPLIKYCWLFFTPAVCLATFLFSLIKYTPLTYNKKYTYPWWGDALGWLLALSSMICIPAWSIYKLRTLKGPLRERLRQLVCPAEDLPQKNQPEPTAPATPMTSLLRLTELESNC
Put plainly: Inhibition of mouse mGAT3 expressed in HEK293 cells assessed as inhibition of [3H]GABA uptake after 3 mins incubation by TopCount microplate scintillation counting analysis. The note with it: read-out: IC50.

The target in test [2] is T2, GABA transporter 2 (Mus musculus, UniProt P31651).
T2 sequence (P31651 whole entry): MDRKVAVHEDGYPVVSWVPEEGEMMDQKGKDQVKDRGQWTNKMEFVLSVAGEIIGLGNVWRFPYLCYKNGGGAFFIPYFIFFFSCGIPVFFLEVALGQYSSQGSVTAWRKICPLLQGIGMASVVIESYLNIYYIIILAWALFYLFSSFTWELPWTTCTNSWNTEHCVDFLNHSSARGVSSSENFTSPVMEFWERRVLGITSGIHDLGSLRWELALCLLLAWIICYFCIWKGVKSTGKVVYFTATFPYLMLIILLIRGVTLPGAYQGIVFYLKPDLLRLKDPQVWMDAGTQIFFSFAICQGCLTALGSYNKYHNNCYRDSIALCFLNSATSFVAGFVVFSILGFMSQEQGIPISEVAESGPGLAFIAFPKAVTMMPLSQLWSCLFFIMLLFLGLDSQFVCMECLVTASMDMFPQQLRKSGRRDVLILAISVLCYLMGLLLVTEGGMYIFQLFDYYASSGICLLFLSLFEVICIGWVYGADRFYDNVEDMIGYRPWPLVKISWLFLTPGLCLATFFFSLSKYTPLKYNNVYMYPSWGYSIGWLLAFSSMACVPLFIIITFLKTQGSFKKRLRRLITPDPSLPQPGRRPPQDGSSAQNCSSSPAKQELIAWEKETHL
Put plainly: Inhibition of mouse mGAT2 expressed in HEK293 cells assessed as inhibition of [3H]GABA uptake after 3 mins incubation by TopCount microplate scintillation counting analysis. The note with it: read-out: IC50.

Test [3] has as its target T3, GABA transporter 4 (Mus musculus, UniProt P31650).
T3 sequence (P31650 whole entry): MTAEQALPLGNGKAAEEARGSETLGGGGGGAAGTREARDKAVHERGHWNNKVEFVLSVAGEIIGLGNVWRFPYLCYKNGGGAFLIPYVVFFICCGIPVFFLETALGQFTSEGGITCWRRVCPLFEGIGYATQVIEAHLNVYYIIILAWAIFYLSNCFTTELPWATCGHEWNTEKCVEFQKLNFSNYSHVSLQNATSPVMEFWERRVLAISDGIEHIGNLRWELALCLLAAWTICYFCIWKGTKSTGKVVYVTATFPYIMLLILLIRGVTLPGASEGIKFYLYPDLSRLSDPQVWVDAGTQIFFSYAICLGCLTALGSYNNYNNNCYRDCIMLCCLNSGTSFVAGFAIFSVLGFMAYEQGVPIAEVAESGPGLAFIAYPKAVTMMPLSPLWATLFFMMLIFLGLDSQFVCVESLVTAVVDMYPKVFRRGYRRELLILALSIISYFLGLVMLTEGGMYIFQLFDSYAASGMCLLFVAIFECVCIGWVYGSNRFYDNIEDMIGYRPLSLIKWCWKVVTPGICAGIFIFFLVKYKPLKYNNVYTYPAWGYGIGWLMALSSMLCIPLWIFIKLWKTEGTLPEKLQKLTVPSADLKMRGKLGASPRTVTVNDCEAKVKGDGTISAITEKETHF
Put plainly: Inhibition of mouse mGAT4 expressed in HEK293 cells assessed as inhibition of [3H]GABA uptake after 3 mins incubation by TopCount microplate scintillation counting analysis. As to conditions: read-out: IC50.

Test [4] deals with Sodium- and chloride-dependent GABA transporter 1 (Mus musculus, UniProt P31648). Put plainly: Inhibition of mouse mGAT1 expressed in HEK293 cells assessed as inhibition of [3H]GABA uptake after 3 mins incubation by TopCount microplate scintillation counting analysis.

Take `COc1ccccc1C1(O)CCN(CCCn2c3ccccc3c3ccccc32)CC1`: the IC50 in test [1] turned out to be 41 µM; in test [2], 1.4 µM.
In the case of `CCOC(=O)[C@H]1CCCC[C@H]1N(C)CCOC(c1ccc(C(F)(F)F)cc1)c1ccc(C(F)(F)F)cc1`, the IC50 in test [1] came out at 511 µM; in test [3] it was 1210 µM; in test [2], 325 µM; in test [4] (read-out: IC50), 425 µM.
The like results for `CNCCC=C(c1sccc1C)c1sccc1C` were, in that order, 137 µM, 254 µM, 179 µM and 160 µM.
The like results for `CNCCON=C(c1ccccc1)c1ccccc1` were, in that order, 1050 µM, 829 µM, 430 µM and > 2000 µM.
In the same order, the values of `CNCCOC(c1ccc(C(F)(F)F)cc1)c1ccc(C(F)(F)F)cc1` are 58 µM, 143 µM, 190 µM and 163 µM.
Turning to `Cc1ccsc1C(=CCCNCCC(=O)O)c1sccc1C`, the IC50 in test [1] amounted to 796 µM; in test [3], 1730 µM; in test [2] it was 504 µM; in test [4] (read-out: IC50) it was 171 µM.
Turning to `O=C(O)CCNCCON=C(c1ccccc1)c1ccccc1`, the IC50 is 290 µM in test [1], 310 µM in test [3], > 1000 µM in test [2] and 6.99 µM in test [4] (read-out: IC50).
For `O=C(O)CCNCCC=C1c2ccccc2CCc2ccccc21`, the IC50 in test [1] stood at 3250 µM; in test [3], 4060 µM; in test [2], 1380 µM; in test [4] (read-out: IC50) it was 281 µM.
Consider `Cc1ccsc1C(=CCCN(C)CCC(=O)O)c1sccc1C`, for which the IC50 in test [1] stood at 343 µM; in test [3] it was 1280 µM; in test [2], 937 µM; in test [4] (read-out: IC50) it was 966 µM.
For the compound `CN(CCON=C(c1ccccc1)c1ccccc1)CCC(=O)O`, the IC50 in test [1] amounted to 674 µM; in test [3], 768 µM; in test [2] it was 7520 µM; in test [4] (read-out: IC50) it was 9.7 µM.
In the case of `CN(CCC=C1c2ccccc2CCc2ccccc21)CCC(=O)O`, the IC50 in test [1] stood at 1050 µM; in test [3], 1700 µM; in test [2], 735 µM; in test [4] (read-out: IC50) it was 77.7 µM.
The like results for `CN(CCCP(=O)(O)O)CCON=C(c1ccccc1)c1ccccc1` were, in that order, > 1000 µM, > 1000 µM, > 1000 µM and > 1000 µM.
In the same order, the values of `CN(CCC=C1c2ccccc2CCc2ccccc21)CCCP(=O)(O)O` are > 1000 µM, > 1000 µM, > 1000 µM and > 1000 µM.
The like results for `CN(CCCS(=O)(=O)O)CCON=C(c1ccccc1)c1ccccc1` were, in that order, > 1000 µM, > 1000 µM, > 1000 µM and 828 µM.
In the case of `Cc1ccsc1C(=CCCn1cc(CNCCC(=O)O)nn1)c1sccc1C`, the IC50 in test [1], in test [3], in test [2] and in test [4] (read-out: IC50) was > 2000 µM throughout.
With `O=C(O)CCNCc1cn(CCOC(c2ccc(C(F)(F)F)cc2)c2ccc(C(F)(F)F)cc2)nn1`, the IC50 in test [1], in test [3], in test [2] and in test [4] (read-out: IC50) was > 1000 µM each time.
Turning to `Cc1ccsc1C(=CCCN1CCNCC(C(=O)O)C1)c1sccc1C` (stereo unspecified), the IC50 was found to be 844 µM in test [1], 1740 µM in test [3], 370 µM in test [2] and 43.8 µM in test [4] (read-out: IC50).
Regarding `CCN1CCN(CCC=C(c2sccc2C)c2sccc2C)CC(C(=O)O)C1` (stereo unspecified), the IC50 in test [1] was 1700 µM; in test [3], > 1000 µM; in test [2], 318 µM; in test [4] (read-out: IC50), 483 µM.
The like results for `CCC(C)N1CCN(CCC=C(c2sccc2C)c2sccc2C)CC(C(=O)O)C1` (stereo unspecified) were, in that order, > 1000 µM, > 1000 µM, 160 µM and > 1000 µM.
Consider `CCCCN1CCN(CCC=C(c2sccc2C)c2sccc2C)CC(C(=O)O)C1` (stereo unspecified), for which the IC50 in test [1] is 650 µM; in test [3], 681 µM; in test [2] it was 80.6 µM; in test [4] (read-out: IC50), 185 µM; in test [4] (read-out: pIC50 (converted)), 501 µM.
For the compound `C=CCN1CCN(CCC=C(c2sccc2C)c2sccc2C)CC(C(=O)O)C1` (stereo unspecified), the IC50 in test [1] is 1100 µM; in test [3], 563 µM; in test [2], 160 µM; in test [4] (read-out: IC50) it was 549 µM.
In the same order, the values of `Cc1ccsc1C(=CCCN1CCN(Cc2ccccc2)CC(C(=O)O)C1)c1sccc1C` (stereo unspecified) are > 1000 µM, > 1000 µM, 309 µM and > 1000 µM.
Take `Cc1ccsc1C(=CCCN1CCN(CCO)CC(C(=O)O)C1)c1sccc1C` (stereo unspecified): the IC50 in test [1], in test [3], in test [2] and in test [4] (read-out: IC50) was > 1000 µM each time.
With `Cc1ccsc1C(=CCCN1CCN(C(=N)N)CC(C(=O)O)C1)c1sccc1C` (stereo unspecified), the IC50 in test [1], in test [3], in test [2] and in test [4] (read-out: IC50) was > 1000 µM in each case.
Turning to `O=C(O)C1CNCCN(CCON=C(c2ccccc2)c2ccccc2)C1` (stereo unspecified), the IC50 was > 1000 µM in test [1]; > 1000 µM in test [3]; > 1000 µM in test [2]; 667 µM in test [4] (read-out: IC50); 5250 µM in test [4] (read-out: pIC50 (converted)).
For the compound `CCN1CCN(CCON=C(c2ccccc2)c2ccccc2)CC(C(=O)O)C1` (stereo unspecified), the IC50 in test [1], in test [3], in test [2] and in test [4] (read-out: IC50) was > 1000 µM in each case.
As for `CCCCN1CCN(CCON=C(c2ccccc2)c2ccccc2)CC(C(=O)O)C1` (stereo unspecified), the IC50 in test [1], in test [3], in test [2] and in test [4] (read-out: IC50) was > 1000 µM in each case.
As for `Cc1ccsc1C(=CCCN1CCN(CCON=C(c2ccccc2)c2ccccc2)CC(C(=O)O)C1)c1sccc1C` (stereo unspecified), the IC50 in test [1], in test [3], in test [2] and in test [4] (read-out: IC50) was > 1000 µM each time.
On to `O=C(O)C1CN(CCO)CCN(CCON=C(c2ccccc2)c2ccccc2)C1` (stereo unspecified), for which the IC50 in test [1], in test [3], in test [2] and in test [4] (read-out: IC50) was > 1000 µM in each case.
Turning to `COc1ccc(C(OCCN2CCC[C@H](C(=O)O)C2)(c2ccc(OC)cc2)c2ccc(OC)cc2)cc1`, the IC50 in test [2] worked out at 22 µM.
For `CN(CCON=C(c1ccccc1)c1ccccc1)[C@@H]1CCCC[C@H]1C(=O)O` (racemic), the IC50 was > 2000 µM in test [1], > 2000 µM in test [3] and 1100 µM in test [2].
As to `Cc1ccsc1C(=CCCN1CCC[C@@H](C(=O)O)C1)c1sccc1C` [TIAGABINE], the IC50 in test [1] was > 300 µM.
